# Active and inactive are the calls of the source. No cut-off for these calls is given here.
# Legend:
# MDA-MB-231 [1] = experiment: Induction of ROS production in human MDA-MB-231 cells assessed as increase in intracellular OH level at 0.3 uM preincubated with compound for 1 hr followed by light irradiation with 400 to 700 nm 100 mW/cm2 for 10 mins by HPF fluorescent probe based flow cytometry; type: functional, cell-based; settings: time 70.0 min
# MDA-MB-231 [2] = experiment: Photocytotoxicity in human MDA-MB-231 cells assessed as cell viability at 1 uM preincubated with compound for 1 hr followed by light irradiated with 400 to 700 nm 100 mW/cm^2 for 10 mins and measured after 24 hrs by CCK-8 assay; type: functional, cell-based; settings: time 1510.0 min
# [3] = Dark cytotoxicity against human MDA-MB-231 cells assessed as cell viability incubated for 24 hrs by CCK8 assay; type: toxicity, cell-based
# MDA-MB-231 [4] = experiment: Photocytotoxicity in human MDA-MB-231 cells assessed as cell viability preincubated with compound for 1 hr followed by light irradiated with 400 to 700 nm 100 mW/cm^2 for 10 mins and measured after 24 hrs by CCK-8 assay; type: functional, cell-based; settings: MDA-MB-231, light or radiation study
# MDA-MB-231 [5] = experiment: Induction of pyroptosis in human MDA-MB-231 cells assessed as increase in IL-1beta content at 0.5 uM preincubated with compound for 1 hr followed by light irradiated with 400 to 700 nm 100 mW/cm^2 for 10 mins and measured after 12 to 20 hrs; type: functional, cell-based; settings: time 790-1270 min
# MDA-MB-231 [6] = experiment: Effect on caspase-3 expression in human MDA-MB-231 cells at 0.5 to 1 uM incubated for 3 hrs by Western blot analysis; type: functional, cell-based; settings: dose 0.5-1 µM
# 4T1 [7] = experiment: Photocytotoxicity in mouse 4T1 cells assessed as cell viability up to 10 uM preincubated with compound for 1 hr followed by light irradiated with 400 to 700 nm 100 mW/cm^2 for 10 mins and measured after 24 hrs by CCK-8 assay; type: functional, cell-based; settings: time 1510.0 min
# MDA-MB-231 [8] = experiment: (§1) Photocytotoxicity in human MDA-MB-231 cells assessed as cell death by measuring red fluorescence intensity at 0.5 uM preincubated with compound for 1 hr followed by light irradiated with 400 to 700 nm 100 mW/cm^2 for 10 mins and measured after 24 hrs by PI staining based confocal microscopic analysis; type: functional; settings: time 1510.0 min
# [9] = Toxicity in BALB/c mouse implanted with mouse 4T1 cells assessed as kidney damage at 1 mg/kg, iv using self assembled nanoparticle as source of compound measured up to 16 days by H and E staining based analysis; type: organism-based; settings: in vivo, 384 h, time < 16 day
# MDA-MB-231 [10] = experiment: Induction of ROS production in human MDA-MB-231 cells assessed as increase in […] fluorescence intensity at 0.3 uM preincubated with compound for 1 hr followed by light irradiation with 400 to 700 nm 100 mW/cm2 for 10 mins by DHE fluorescent probe based flow cytometry; type: functional, cell-based; settings: time 70.0 min
# 4T1 [11] = experiment: Antitumor activity against mouse 4T1 cells implanted in BALB/c mouse at 1 mg/kg, iv using self assembled nanoparticle as source of compound measured at 3 hrs; type: functional, organism-based
# MDA-MB-231 [12] = experiment: Dark cytotoxicity against human MDA-MB-231 cells assessed as cell viability at 1 uM incubated for 24 hrs by CCK8 assay; type: toxicity, cell-based; settings: mda-mb-231, 24 h
# MDA-MB-231 [13] = experiment: Induction of pyroptosis in human MDA-MB-231 cells assessed as swelling bubble formation at 0.5 uM preincubated with compound for 3 hrs followed by light irradiated with 400 to 700 nm 100 mW/cm^2 for 10 mins by confocal microscopic analysis; type: functional, cell-based; settings: time 190.0 min
# MDA-MB-231 [14] = experiment: Photocytotoxicity in human MDA-MB-231 cells assessed as cell viability preincubated with compound for 1 hr followed by light irradiated with 400 to 700 nm 100 mW/cm^2 for 10 mins and measured after 24 hrs under hypoxic condition by CCK-8 assay; type: functional, cell-based; settings: MDA-MB-231, light or radiation study
# [15] = Toxicity in BALB/c mouse implanted with mouse 4T1 cells assessed as liver damage at 1 mg/kg, iv using self assembled nanoparticle as source of compound measured up to 16 days by H and E staining based analysis; type: organism-based; settings: in vivo, 384 h, time < 16 day
# MDA-MB-231 [16] = experiment: Upregulation of cleaved caspase expression in human MDA-MB-231 cells at 0.5 to 1 uM preincubated with compound for 1 hr followed by light irradiated with 400 to 700 nm 100 mW/cm^2 for 10 mins and measured after 3 hrs by Western blot analysis; type: functional, cell-based; settings: dose 0.5-1 µM, time 250.0 min
# [17] = Toxicity in BALB/c mouse implanted with mouse 4T1 cells assessed as change in body weight at 1 mg/kg, iv using self assembled nanoparticle as source of compound measured up to 16 days; type: organism-based; settings: in vivo, 384 h, time < 16 day
# MDA-MB-231 [18] = experiment: as §1, with “cell viability” for “cell death”, “measuring green” for “measuring red”, “by Calcein-AM” for “by PI”; type: functional; settings: time 1510.0 min
# MDA-MB-231 [19] = experiment: Upregulation of N-terminal GSDME expression in human MDA-MB-231 cells at 0.5 to 1 uM preincubated with compound for 1 hr followed by light irradiated with 400 to 700 nm 100 mW/cm^2 for 10 mins and measured after 6 hrs by Western blot analysis; type: functional, cell-based; settings: dose 0.5-1 µM, time 430.0 min
# [20] = Induction of ROS generation in BPS buffer assessed as increase in singlet oxygen level by measuring reduction in ABDA absorption peak at 10 uM irradiated with 400 to 700 nm 20 mW/cm2 light […]; type: functional
# MDA-MB-231 [21] = experiment: Induction of ROS production in human MDA-MB-231 cells assessed as increase in green fluorescence intensity at 0.3 uM preincubated with compound for 1 hr followed by light irradiation with 400 to 700 nm 100 mW/cm2 for 10 mins by HPF fluorescent probe based flow cytometry; type: functional, cell-based; settings: time 70.0 min
# 4T1 [22] = experiment: (§2) Antitumor activity against mouse 4T1 cells implanted in BALB/c mouse assessed as increase CD4+ CD8+ cells in spleen at 1 mg/kg, iv using self assembled nanoparticle as source of compound preincubated with compound for 3 hrs followed by irradiation with 400 to 700 nm 100 mW/cm2 for 5 mins and measured after 14 days by flow cytometry analysis; type: functional, organism-based; settings: time 20345.0 min
# MDA-MB-231 [23] = experiment: Induction of pyroptosis in human MDA-MB-231 cells assessed as formation of bubble-like protrusion on plasma membrane at 0.5 uM preincubated with compound for 1 hr followed by light irradiated with 400 to 700 nm 100 mW/cm^2 for 10 mins and measured after 6 hrs by DiO staining based confocal microscopic analysis; type: functional, cell-based; settings: time 430.0 min
# MDA-MB-231 [24] = experiment: Induction of ROS production in human MDA-MB-231 cells assessed as increase in red fluorescence intensity at 0.3 uM preincubated with compound for 1 hr followed by light irradiation with 400 to 700 nm 100 mW/cm2 for 10 mins by […] fluorescent probe based flow cytometry; type: functional, cell-based; settings: time 70.0 min
# [25] = Toxicity in BALB/c mouse implanted with mouse 4T1 cells assessed as heart damage at 1 mg/kg, iv using self assembled nanoparticle as source of compound measured up to 16 days by H and E staining based analysis; type: organism-based; settings: in vivo, 384 h, time < 16 day
# MDA-MB-231 [26] = experiment: Induction of pyroptosis mediated immunogenic cell death in human MDA-MB-231 cells assessed as increase in ATP release at 0.5 uM preincubated with compound for 1 hr followed by light irradiated with 400 to 700 nm 100 mW/cm^2 for 10 mins and measured after 6 to 12 hrs by microplate luminometer analysis; type: functional, cell-based; settings: time 430-790 min
# [27] = Induction of ROS generation in BPS buffer assessed as increase in superoxide anion radical level by measuring increase in DHR123 fluorescence intensity at 10 uM irradiated with 400 to 700 nm 20 mW/cm2 light by DHR123 probe based fluorescence spectra analysis; type: functional; settings: time <= 10.0 min
# [28] = Toxicity in BALB/c mouse implanted with mouse 4T1 cells assessed as lung damage at 1 mg/kg, iv using self assembled nanoparticle as source of compound measured up to 16 days by H and E staining based analysis; type: organism-based; settings: in vivo, 384 h, time < 16 day
# MDA-MB-231 [29] = experiment: Induction of pyroptosis mediated immunogenic cell death in human MDA-MB-231 cells assessed as HMGB1 release from nucleus at 0.5 uM preincubated with compound for 1 hr followed by light irradiated with 400 to 700 nm 100 mW/cm^2 for 10 mins and measured after 18 hrs; type: functional, cell-based; settings: time 1150.0 min
# 4T1 [30] = experiment: as §2, with “increase” for “increase CD4+ CD8+ cells”, “caspase-3 level” for “spleen”, “days” for “days by flow cytometry analysis”; type: functional, organism-based; settings: time 20345.0 min
# MDA-MB-231 [31] = experiment: Induction of apoptosis in human MDA-MB-231 cells assessed as cell death by flow cytometry analysis; type: functional, cell-based
# MDA-MB-231 [32] = experiment: Induction of pyroptosis in human MDA-MB-231 cells assessed as change in LDH level at 0.5 uM preincubated with compound for 1 hr followed by light irradiated with 400 to 700 nm 100 mW/cm^2 for 10 mins and measured after 12 to 24 hrs; type: functional, cell-based; settings: time 790-1510 min
# [33] = Drug uptake in human MDA-MB-231 cells at 2 uM measured at 1 hr by flow cytometry analysis; type: ADME, cell-based; settings: mda-mb-231, 1 h
# 4T1 [34] = experiment: Induction of pyroptosis in mouse 4T1 cells preincubated with compound for 1 hr followed by light irradiated with 400 to 700 nm 100 mW/cm^2 for 10 mins; type: functional, cell-based; settings: time 70.0 min
# [35] = Toxicity in BALB/c mouse implanted with mouse 4T1 cells assessed as spleen damage at 1 mg/kg, iv using self assembled nanoparticle as source of compound measured up to 16 days by H and E staining based analysis; type: organism-based; settings: in vivo, 384 h, time < 16 day
# MDA-MB-231 [36] = experiment: Effect on GSDME expression in human MDA-MB-231 cells at 0.5 to 1 uM incubated for 3 hrs by Western blot analysis; type: functional, cell-based; settings: dose 0.5-1 µM
# MDA-MB-231 [37] = experiment: Induction of pyroptosis in human MDA-MB-231 cells assessed as increase in IL-18 content at 0.5 uM preincubated with compound for 1 hr followed by light irradiated with 400 to 700 nm 100 mW/cm^2 for 10 mins and measured after 12 to 20 hrs; type: functional, cell-based; settings: time 790-1270 min
# MDA-MB-231 [38] = experiment: Induction of pyroptosis mediated immunogenic cell death in human MDA-MB-231 cells assessed as increase in CRT exposure on cell membrane at 0.5 uM preincubated with compound for 1 hr followed by light irradiated with 400 to 700 nm 100 mW/cm^2 for 10 mins and measured after 18 hrs; type: functional, cell-based; settings: time 1150.0 min
# 4T1 [39] = experiment: as §2, with “lymph” for “spleen”; type: functional, organism-based; settings: time 20345.0 min
# MDA-MB-231 [40] = experiment: Induction of ROS production in human MDA-MB-231 cells assessed as increase in red fluorescence intensity at 0.3 uM preincubated with compound for 1 hr followed by light irradiation with 400 to 700 nm 100 mW/cm2 for 10 mins by DHE fluorescent probe based flow cytometry; type: functional, cell-based; settings: time 70.0 min
# MDA-MB-231 [41] = experiment: Photocytotoxicity in human MDA-MB-231 cells assessed as reduction in ATP level at 0.5 uM preincubated with compound for 6 hrs followed by light irradiated with 400 to 700 nm 100 mW/cm^2 for 10 mins; type: functional, cell-based; settings: time 370.0 min
smiles,measurement,setting,value
O=S(=O)(O)c1cc(O)c(O)c(S(=O)(=O)O)c1,Activity,MDA-MB-231 [1],Active
C[N+]1=C(/C=C/c2ccc(-c3cnn4ccc(N5CCOCC5)nc34)s2)C(C)(C)c2ccccc21,Activity,MDA-MB-231 [2],Active
same,IC50 at 24 h,[3],> 10 µM
same,IC50,MDA-MB-231 [4],330 nM
CC[n+]1c(/C=C/c2ccc(-c3cnn4ccc(N5CCOCC5)nc34)s2)sc2ccccc21.[I-],Activity,MDA-MB-231 [5],Active
same,Activity,MDA-MB-231 [6],inactive
same,Activity,4T1 [7],Active
same,Activity,MDA-MB-231 [2],Active
same,Activity,MDA-MB-231 [8],Active
same,Activity,[9],Non-toxic
same,Activity,MDA-MB-231 [10],Active
same,Activity,4T1 [11],Active
same,Activity,MDA-MB-231 [12],Non-toxic
same,Activity,MDA-MB-231 [13],Active
same,IC50,MDA-MB-231 [14],1100 nM
same,Activity,[15],Non-toxic
same,Activity,MDA-MB-231 [16],Active
same,Activity,[17],Non-toxic
same,Activity,MDA-MB-231 [18],Active
same,Activity,MDA-MB-231 [19],Active
same,Activity,[20],Active
same,Activity,MDA-MB-231 [21],Active
same,Activity,4T1 [22],Active
same,IC50 at 24 h,[3],> 20 µM
same,Activity,MDA-MB-231 [1],Active
same,Activity,MDA-MB-231 [23],Active
same,IC50,MDA-MB-231 [4],220 nM
same,Activity,MDA-MB-231 [24],Active
same,Activity,[25],Non-toxic
same,Activity,MDA-MB-231 [26],Active
same,Activity,[27],Time-dependent-effect
same,Activity,[28],Non-toxic
same,Activity,MDA-MB-231 [29],Active
same,Activity,4T1 [30],Active
same,Activity,MDA-MB-231 [31],Active
same,Activity,MDA-MB-231 [32],Active
same,Drug uptake,[33],Active
same,Activity,4T1 [34],Active
same,Activity,[35],Non-toxic
same,Activity,MDA-MB-231 [36],inactive
same,Activity,MDA-MB-231 [37],Active
same,Activity,MDA-MB-231 [38],Active
same,Activity,4T1 [39],Active
same,Activity,MDA-MB-231 [40],Active
same,Activity,MDA-MB-231 [41],Active
CC[N+]1=C(/C=C/c2ccc(-c3cnn4ccc(N5CCOCC5)nc34)s2)C(C)(C)c2cc(I)ccc21,Activity,MDA-MB-231 [2],Active
same,IC50 at 24 h,[3],> 10 µM
same,IC50,MDA-MB-231 [4],280 nM

# Source: ChEMBL document CHEMBL6177984, “Pyrazolo[1,5-a]pyrimidine-Based Type-I Photosensitizer as an Efficient Pyroptosis Inducer for Tumor Ablation” (J Med Chem, 2025)
